Our source for the inhibition values is patent US10774083B2, “Heterocyclic amide compound” (TAKEDA PHARMACEUTICAL COMPANY LIMITED, priority 2016, dated 2020).

For assay [1], the system named is human ovarian cancer cells A2780. Description: proliferation inhibitory activity against human ovarian cancer cell A2780 (CellTiter-Glo). The format is cell-based. The settings on record: A2780, 72 h, 1 μM test compound, 3 days of culture, read-out: proliferation inhibitory rate (%) of A2780 cells. The method, boiled down:
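A2780 cells in RPMI-1640 with 10% FBS, compound added the day after seeding and cultured 3 days. Viability by CellTiter-Glo luminescence. Inhibition (%) calculated with cell-free wells as 100% inhibition.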
In general terms: In ATP-based viability assays light output follows the ATP content of the culture.

Assay [2] has as its target T1, human PRS protein (His-Avi-hEPRS (998-1512)) (Homo sapiens, UniProt P07814).
T1 construct: to construct His-Avi-hEPRS (998-1512) expression plasmid; His tag (N); Avi tag (N); TEV cleavage site (ENLYFQG, then S; inferred from the forward primer hEPRS-TEV-NheF) (N); made in house; host or cells: E. coli BL21(DE3)
T1 sequence (P07814 998-1512 limits assumed): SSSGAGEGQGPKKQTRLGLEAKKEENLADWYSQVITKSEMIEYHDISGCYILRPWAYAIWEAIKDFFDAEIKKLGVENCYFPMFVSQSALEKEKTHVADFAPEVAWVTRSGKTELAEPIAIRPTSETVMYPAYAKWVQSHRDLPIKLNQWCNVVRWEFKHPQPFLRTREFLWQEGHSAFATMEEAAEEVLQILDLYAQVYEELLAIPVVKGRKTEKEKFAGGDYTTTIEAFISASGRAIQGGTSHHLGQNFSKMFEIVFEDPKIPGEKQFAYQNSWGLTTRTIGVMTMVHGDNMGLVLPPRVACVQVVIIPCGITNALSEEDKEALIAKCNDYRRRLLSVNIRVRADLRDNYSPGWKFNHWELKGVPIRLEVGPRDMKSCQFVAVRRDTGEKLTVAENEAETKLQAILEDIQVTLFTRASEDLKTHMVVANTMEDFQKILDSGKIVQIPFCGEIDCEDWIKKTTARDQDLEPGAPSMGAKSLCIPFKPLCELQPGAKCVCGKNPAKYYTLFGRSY
Description: PRS inhibitory activity ([32P]pyrophosphate exchange enzyme assay). The format is biochemical. The conditions noted are these: 300 nM test compound; read-out: inhibitory rate (%) of PRS. The method, boiled down: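 Compound was pre-incubated 60 min with 40 nM His-Avi-hEPRS (998-1512) (stock, E. coli-expressed) in Tris pH 7.5/KCl/DTT/Tween/MgCl2. Reaction began with substrate mix containing 300 μM ATP, 160 μM L-proline, 400 μM [32P]pyrophosphate (stock levels) and ran 30 min at room temperature. Charcoal-bound radioactivity was counted; inhibition was relative to no-reaction control.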

Molecules are shown by their SMILES.

Turning to `Cc1cc(N2CC[C@@](C#N)(C3CC3)C2=O)cc(C(=O)NCc2cc(F)cc(-c3cnn(C4CC4)c3)c2)n1` [Example 168, 4-((3S)-3-cyano-3-cyclopropyl-2-oxopyrrolidin-1-yl)-N-(3-(1-cyclopropyl-1H-pyrazol-4-yl)-5-fluorobenzyl)-6-methylpyridine-2-carboxamide], in assay [1], the inhibition at 1 µM is 98%. The inhibition at 0.3 µM in assay [2] amounted to 100%.

As for `Cc1cn(-c2cc(F)cc(CNC(=O)c3ncnc4nc(C5CCCC5)n(C)c34)c2)nc1C` [Example 56, 8-cyclopentyl-N-(3-(3,4-dimethyl-1H-pyrazol-1-yl)-5-fluorobenzyl)-7-methyl-7H-purine-6-carboxamide], the inhibition at 1 µM in assay [1] amounted to 99%. For the same molecule, in assay [2], the inhibition at 0.3 µM came out at 102%.

As for `Cc1cc(N2CCC3(CC3)C2=O)cc(C(=O)NCc2cc(F)cc(-c3cnn(C)c3)c2)n1` [Example 233, N-(3-fluoro-5-(1-methyl-1H-pyrazol-4-yl)benzyl)-6-methyl-4-(4-oxo-5-azaspiro[2.4]hept-5-yl)pyridine-2-carboxamide], the inhibition at 1 µM in assay [1] came to 70%. Moreover, the inhibition at 0.3 µM in assay [2] was determined as 100%.

Take `Cn1cc(-c2cc(F)cc(CNC(=O)c3nccc4nc(C5CCOC5)[nH]c34)c2)cn1` (centres unmarked) [Example 103, N-(3-fluoro-5-(1-methyl-1H-pyrazol-4-yl)benzyl)-2-(tetrahydrofuran-3-yl)-3H-imidazo[4,5-c]pyridine-4-carboxamide]: in assay [1], the inhibition at 1 µM was 73%. Besides, the inhibition at 0.3 µM in assay [2] was found to be 99%.

`Cc1cc(N2CC[C@@](C#N)(C3CC3)C2=O)nc(C(=O)NCc2cc(F)cc(-c3cnn(C)c3)c2)n1` [Example 238, 4-((3S)-3-cyano-3-cyclopropyl-2-oxopyrrolidin-1-yl)-N-(3-fluoro-5-(1-methyl-1H-pyrazol-4-yl)benzyl)-6-methylpyrimidine-2-carboxamide]: in assay [1], the inhibition at 1 µM was found to be 95%. Besides, the inhibition at 0.3 µM in assay [2] was found to be 101%.

With `Cn1cc(-c2cc(F)cc(CNC(=O)c3cc(N4CC[C@@](C#N)(C5CC5)C4=O)cc(C(F)F)n3)c2)cn1` [Example 214, 4-((3S)-3-cyano-3-cyclopropyl-2-oxopyrrolidin-1-yl)-6-(difluoromethyl)-N-(3-fluoro-5-(1-methyl-1H-pyrazol-4-yl)benzyl)pyridine-2-carboxamide], the inhibition at 1 µM in assay [1] is 72%. In addition, in assay [2], the inhibition at 0.3 µM amounted to 99%.

In the case of `Cn1cc(-c2cc(F)cc(CNC(=O)c3nccc4nc(C5CCCC5)n(CC(=O)O)c34)c2)cn1` [Example 127, (2-cyclopentyl-4-((3-fluoro-5-(1-methyl-1H-pyrazol-4-yl)benzyl)carbamoyl)-3H-imidazo[4,5-c]pyridin-3-yl)acetic acid], the inhibition at 1 µM in assay [1] was determined as 70%. Moreover, in assay [2], the inhibition at 0.3 µM was determined as 101%.

As for `Cc1cc(-c2cc(F)cc(CNC(=O)c3cc(N4CC[C@@](C#N)(C5CC5)C4=O)cc(C)n3)c2)cnn1` [Example 207, 4-((3S)-3-cyano-3-cyclopropyl-2-oxopyrrolidin-1-yl)-N-(3-fluoro-5-(6-methylpyridazin-4-yl)benzyl)-6-methylpyridine-2-carboxamide], the inhibition at 1 µM in assay [1] came out at 59%. Besides, the inhibition at 0.3 µM in assay [2] stood at 96%.

As to `Cc1cc(N2CCC(C)(C)C2=O)cc(C(=O)NCc2cc(F)cc(-c3cnn(C)c3)c2)n1` [Example 165, 4-(3,3-dimethyl-2-oxopyrrolidin-1-yl)-N-(3-fluoro-5-(1-methyl-1H-pyrazol-4-yl)benzyl)-6-methylpyridine-2-carboxamide], the inhibition at 1 µM in assay [1] is 75%. In assay [2], the inhibition at 0.3 µM turned out to be 100%.

`Cn1cc(NC(=O)c2cccc(CNC(=O)c3nccc4nc(C5CCCC5)[nH]c34)c2)cn1` [Example 106, 2-cyclopentyl-N-(3-((1-methyl-1H-pyrazol-4-yl)carbamoyl)benzyl)-3H-imidazo[4,5-c]pyridine-4-carboxamide]: in assay [1], the inhibition at 1 µM worked out at 84%. The inhibition at 0.3 µM in assay [2] was determined as 99%.

For `Cn1cc(-c2cc(F)cc(CNC(=O)c3nccc4nc(C5CCCC5)n(CC(N)=O)c34)c2)cn1` [Example 128, 3-(2-amino-2-oxoethyl)-2-cyclopentyl-N-(3-fluoro-5-(1-methyl-1H-pyrazol-4-yl)benzyl)-3H-imidazo[4,5-c]pyridine-4-carboxamide], the inhibition at 1 µM in assay [1] worked out at 97%. In addition, in assay [2], the inhibition at 0.3 µM was 102%.

Regarding `Cc1cc(N2CCC3(CCC3)C2=O)cc(C(=O)NCc2cc(F)cc(-c3cnn(C)c3)c2)n1` [Example 232, N-(3-fluoro-5-(1-methyl-1H-pyrazol-4-yl)benzyl)-6-methyl-4-(5-oxo-6-azaspiro[3.4]oct-6-yl)pyridine-2-carboxamide], in assay [1], the inhibition at 1 µM worked out at 64%. Further, the inhibition at 0.3 µM in assay [2] is 100%.

For the molecule `Cn1cc(-c2cc(F)cc(CNC(=O)c3ncnc4nc(C5CCCC5)[nH]c34)c2)cn1` [Example 2, 8-cyclopentyl-N-(3-fluoro-5-(1-methyl-1H-pyrazol-4-yl)benzyl)-7H-purine-6-carboxamide], in assay [1], the inhibition at 1 µM is 97%. Besides, in assay [2], the inhibition at 0.3 µM came out at 101%.

In the case of `Cn1cc(-c2cc(F)cc(CNC(=O)c3ncc(F)c4nc(C5CCCC5)n(C)c34)c2)cn1` [Example 113, 2-cyclopentyl-7-fluoro-N-(3-fluoro-5-(1-methyl-1H-pyrazol-4-yl)benzyl)-3-methyl-3H-imidazo[4,5-c]pyridine-4-carboxamide], in assay [1], the inhibition at 1 µM was determined as 99%. Besides, the inhibition at 0.3 µM in assay [2] was 101%.

Regarding `Cc1cn(-c2cc(F)cc(CNC(=O)c3cc(N4CC[C@@](C#N)(C5CC5)C4=O)cc(C)n3)c2)cn1` [Example 228, 4-((3S)-3-cyano-3-cyclopropyl-2-oxopyrrolidin-1-yl)-N-(3-fluoro-5-(4-methyl-1H-imidazol-1-yl)benzyl)-6-methylpyridine-2-carboxamide], the inhibition at 1 µM in assay [1] came out at 88%. For the same molecule, the inhibition at 0.3 µM in assay [2] turned out to be 100%.

For `Cn1cc(-c2cc(F)cc(CNC(=O)c3ncnc4nc(C5CCCCO5)[nH]c34)c2)cn1` (centres unmarked) [Example 31, N-(3-fluoro-5-(1-methyl-1H-pyrazol-4-yl)benzyl)-8-(tetrahydro-2H-pyran-2-yl)-7H-purine-6-carboxamide], the inhibition at 1 µM in assay [1] stood at 97%. The inhibition at 0.3 µM in assay [2] was 102%.

Regarding `CCn1c(C2CCCC2)nc2ccnc(C(=O)NCc3cc(F)cc(-c4cnn(C)c4)c3)c21` [Example 101, 2-cyclopentyl-3-ethyl-N-(3-fluoro-5-(1-methyl-1H-pyrazol-4-yl)benzyl)-3H-imidazo[4,5-c]pyridine-4-carboxamide], the inhibition at 1 µM in assay [1] turned out to be 98%. The inhibition at 0.3 µM in assay [2] turned out to be 102%.

For the molecule `Cc1cc(CNC(=O)c2cc(N3CC[C@@](C#N)(C4CC4)C3=O)cc(C)n2)cc(-c2cnn(C)c2)c1` [Example 217, 4-((3S)-3-cyano-3-cyclopropyl-2-oxopyrrolidin-1-yl)-6-methyl-N-(3-methyl-5-(1-methyl-1H-pyrazol-4-yl)benzyl)pyridine-2-carboxamide], the inhibition at 1 µM in assay [1] came to 80%. Besides, the inhibition at 0.3 µM in assay [2] was found to be 101%.

On to `Cn1cc(-c2cc(F)cc(CNC(=O)c3nccc4nc(C5CCCC5)n(CC#N)c34)c2)cn1` [Example 131, 3-(cyanomethyl)-2-cyclopentyl-N-(3-fluoro-5-(1-methyl-1H-pyrazol-4-yl)benzyl)-3H-imidazo[4,5-c]pyridine-4-carboxamide], for which the inhibition at 1 µM in assay [1] came out at 93%. The inhibition at 0.3 µM in assay [2] turned out to be 101%.

In the case of `Cn1cc(-c2cc(F)cc(CNC(=O)c3nccc4nc(Cc5ccccc5)[nH]c34)c2)cn1` [Example 109, 2-benzyl-N-(3-fluoro-5-(1-methyl-1H-pyrazol-4-yl)benzyl)-3H-imidazo[4,5-c]pyridine-4-carboxamide], the inhibition at 1 µM in assay [1] amounted to 84%. Moreover, the inhibition at 0.3 µM in assay [2] came out at 100%.

With `Cc1cc(N2CCC(C#N)(C3CCC3)C2=O)cc(C(=O)NCc2cc(F)cc(-c3cnn(C)c3)c2)n1` (centres unmarked) [Example 229, 4-(3-cyano-3-cyclobutyl-2-oxopyrrolidin-1-yl)-N-(3-fluoro-5-(1-methyl-1H-pyrazol-4-yl)benzyl)-6-methylpyridine-2-carboxamide], in assay [1], the inhibition at 1 µM stood at 91%. Besides, in assay [2], the inhibition at 0.3 µM is 100%.

For the molecule `Cc1cc(N2CC[C@@](C#N)(C3CC3)C2=O)cc(C(=O)NCc2cc(F)cc(-c3cnn(C4CCOCC4)c3)c2)n1` [Example 182, 4-((3S)-3-cyano-3-cyclopropyl-2-oxopyrrolidin-1-yl)-N-(3-fluoro-5-(1-(tetrahydro-2H-pyran-4-yl)-1H-pyrazol-4-yl)benzyl)-6-methylpyridine-2-carboxamide], in assay [1], the inhibition at 1 µM was found to be 97%. Further, in assay [2], the inhibition at 0.3 µM turned out to be 101%.
